In the NIST ThermoML archive (doi:10.1016/j.fluid.2008.10.003):

Test: isobaric coefficient of expansion
Conditions: calorimetric method

CCCCCCO [hexan-1-ol]
isobaric coefficient of expansion
Conditions	5000 kPa	10000 kPa	15000 kPa	20000 kPa	25000 kPa	30000 kPa	35000 kPa	40000 kPa	45000 kPa	50000 kPa
278.15 K	0.000821 1/K	0.0008 1/K	0.000788 1/K	0.000778 1/K	0.00076 1/K	0.000748 1/K	0.000733 1/K	0.000723 1/K	0.000716 1/K	0.000708 1/K
298.15 K	0.00085 1/K	0.000832 1/K	0.000812 1/K	0.000796 1/K	0.00078 1/K	0.000764 1/K	0.000749 1/K	0.000734 1/K	0.000724 1/K	0.000712 1/K
328.15 K	0.000929 1/K	0.0009 1/K	0.000876 1/K	0.000854 1/K	0.000833 1/K	0.000813 1/K	0.000794 1/K	0.000776 1/K	0.000759 1/K	0.000745 1/K
348.15 K	0.000995 1/K	0.00096 1/K	0.000929 1/K	0.000903 1/K	0.000875 1/K	0.000852 1/K	0.000831 1/K	0.000808 1/K	0.000791 1/K	0.000772 1/K
